The values that follow are results of earlier work, collected in patent US20150246027A1, “FIXED DOSE PHARMACEUTICAL COMPOSITION COMPRISING DEFERASIROX AND DEFERIPRONE” (CIPLA LIMITED, priority 2012, published 2015).

Converted amounts (≈) assume the structure as drawn. “Also recorded” adds a separate entry of the source.

For data set [1] the following is noted: for solubility in water (in words): water / aqueous media.
For data set [2] the following is noted: Bio-pharmaceutics Classification System.
For data set [3] the following is noted: oral; majority excreted as inactive glucuronide metabolite.

For `O=C(O)c1ccc(-n2nc(-c3ccccc3O)nc2-c2ccccc2O)cc1` [Deferasirox, 4-[3,5-bis(2-hydroxyphenyl)-[1,2,4]triazol-1-yl]enzoic acid], the “permeability (in words)” value was “good permeability”. Moreover, the “solubility at pH 6.8 (in words)” value in data set [1] (pH 6.8, until the buffer strength is altered) is given as “insoluble”. Moreover, the “solubility in water (in words)” value in data set [1] was “highly water-insoluble; also recorded: practically insoluble”. In data set [2], the BCS class entry is listed as “Class II”.
Take `Cc1c(O)c(=O)ccn1C` [Deferiprone, 3-hydroxy-1,2-dimethylpyridin-4-one]: in data set [1] (water), the solubility in water is 12.95 mg/mL (≈ 93.1 mM). In addition, the “solubility in water (in words)” value in data set [1] is listed as “sparingly soluble”. For the same molecule, the “ingested dose excreted as the active form” value in data set [3] was “less than 10%”.
